Measured values published in ChEMBL document CHEMBL4804286, “3-amino-4-(4-(4 (dimethylcarbamoyl) phenyl)-1,4-diazepan-1-yl) thieno [2,3-b] pyridine-2-carboxamide for use in cancer therapy and formulations comprising the same” (2020).
Values joined by “and” are separate entries in the source; they are usually repeats but may differ in a detail not shown here. Identical values can stand only once.

Assays:
[1] = target: Inhibitor of nuclear factor kappa-B kinase subunit alpha (Homo sapiens) (UniProt O15111); assay: Inhibition of human IKK-alpha assessed as percent of control at 2000 nM by KINOMEscan assay relative to control; set-up: scale not given: the % may be the effect or the level left
[2] = target: Tyrosine-protein kinase BTK (Homo sapiens) (UniProt Q06187); assay: Inhibition of human BTK assessed as percent of control at 2000 nM by KINOMEscan assay relative to control; set-up: scale not given: the % may be the effect or the level left
Tyrosine-protein kinase BTK (Homo sapiens), sequence (Q06187 whole entry): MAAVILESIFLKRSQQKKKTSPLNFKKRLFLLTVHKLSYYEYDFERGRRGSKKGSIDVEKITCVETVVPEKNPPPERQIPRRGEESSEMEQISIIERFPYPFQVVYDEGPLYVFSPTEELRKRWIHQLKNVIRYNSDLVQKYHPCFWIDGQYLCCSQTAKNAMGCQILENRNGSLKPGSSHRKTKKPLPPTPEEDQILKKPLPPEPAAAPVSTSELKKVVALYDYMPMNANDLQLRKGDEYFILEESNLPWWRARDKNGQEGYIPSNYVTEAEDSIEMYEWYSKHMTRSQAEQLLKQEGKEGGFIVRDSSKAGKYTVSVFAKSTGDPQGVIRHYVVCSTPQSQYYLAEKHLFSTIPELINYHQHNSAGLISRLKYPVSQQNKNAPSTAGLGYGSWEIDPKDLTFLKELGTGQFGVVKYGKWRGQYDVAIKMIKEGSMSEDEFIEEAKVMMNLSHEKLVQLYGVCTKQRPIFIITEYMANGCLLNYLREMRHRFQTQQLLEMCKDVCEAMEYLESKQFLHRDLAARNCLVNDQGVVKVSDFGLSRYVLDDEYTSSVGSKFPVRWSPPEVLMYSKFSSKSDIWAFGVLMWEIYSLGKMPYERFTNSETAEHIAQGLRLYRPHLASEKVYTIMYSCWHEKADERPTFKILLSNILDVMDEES

[3] = target: Serine/threonine-protein kinase 32C (Homo sapiens) (UniProt Q86UX6); assay: Inhibition of human YANK3 assessed as percent of control at 2000 nM by KINOMEscan assay relative to control; set-up: scale not given: the % may be the effect or the level left
[4] = target: cAMP-dependent protein kinase catalytic subunit alpha (Homo sapiens) (UniProt P17612); assay: Inhibition of human PKAC-alpha assessed as percent of control at 2000 nM by KINOMEscan assay relative to control; set-up: scale not given: the % may be the effect or the level left
[5] = target: Epidermal growth factor receptor (Homo sapiens) (UniProt P00533); assay: Inhibition of human EGFR assessed as percent of control at 2000 nM by KINOMEscan assay relative to control; set-up: scale not given: the % may be the effect or the level left
[6] = target: Dual specificity protein kinase CLK4 (Homo sapiens) (UniProt Q9HAZ1); assay: Inhibition of human CLK4 assessed as percent of control at 2000 nM by KINOMEscan assay relative to control; set-up: scale not given: the % may be the effect or the level left
[7] = target: G protein-coupled receptor kinase 3 (Homo sapiens) (UniProt P35626); assay: Inhibition of human GRK3 assessed as percent of control at 2000 nM by KINOMEscan assay relative to control; set-up: scale not given: the % may be the effect or the level left
G protein-coupled receptor kinase 3 (Homo sapiens), sequence (P35626 whole entry): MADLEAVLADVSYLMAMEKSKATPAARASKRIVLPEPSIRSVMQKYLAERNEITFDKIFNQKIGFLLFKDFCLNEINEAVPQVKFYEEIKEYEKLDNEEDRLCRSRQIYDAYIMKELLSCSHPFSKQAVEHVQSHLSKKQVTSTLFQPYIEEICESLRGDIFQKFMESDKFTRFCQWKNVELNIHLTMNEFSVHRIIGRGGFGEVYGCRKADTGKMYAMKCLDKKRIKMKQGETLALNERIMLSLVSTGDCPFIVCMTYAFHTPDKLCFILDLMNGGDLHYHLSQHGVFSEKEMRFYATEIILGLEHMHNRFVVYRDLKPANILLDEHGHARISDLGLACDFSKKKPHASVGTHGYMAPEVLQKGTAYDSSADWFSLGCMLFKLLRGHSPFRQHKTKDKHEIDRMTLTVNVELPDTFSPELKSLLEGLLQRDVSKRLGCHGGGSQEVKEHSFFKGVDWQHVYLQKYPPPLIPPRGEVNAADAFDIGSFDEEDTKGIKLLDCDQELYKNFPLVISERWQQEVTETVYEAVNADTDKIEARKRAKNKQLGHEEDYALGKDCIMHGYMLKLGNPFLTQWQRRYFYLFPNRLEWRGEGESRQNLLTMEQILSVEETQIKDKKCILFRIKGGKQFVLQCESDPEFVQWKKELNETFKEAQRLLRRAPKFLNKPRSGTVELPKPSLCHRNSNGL

[8] = target: Receptor tyrosine-protein kinase erbB-2 (Homo sapiens) (UniProt P04626); assay: Inhibition of human ERBB2 assessed as percent of control at 2000 nM by KINOMEscan assay relative to control; set-up: scale not given: the % may be the effect or the level left
[9] = target: Proto-oncogene tyrosine-protein kinase Src (Homo sapiens) (UniProt P12931); assay: Inhibition of human SRC assessed as percent of control at 2000 nM by KINOMEscan assay relative to control; set-up: scale not given: the % may be the effect or the level left
Proto-oncogene tyrosine-protein kinase Src (Homo sapiens), sequence (P12931 2-536 limits assumed): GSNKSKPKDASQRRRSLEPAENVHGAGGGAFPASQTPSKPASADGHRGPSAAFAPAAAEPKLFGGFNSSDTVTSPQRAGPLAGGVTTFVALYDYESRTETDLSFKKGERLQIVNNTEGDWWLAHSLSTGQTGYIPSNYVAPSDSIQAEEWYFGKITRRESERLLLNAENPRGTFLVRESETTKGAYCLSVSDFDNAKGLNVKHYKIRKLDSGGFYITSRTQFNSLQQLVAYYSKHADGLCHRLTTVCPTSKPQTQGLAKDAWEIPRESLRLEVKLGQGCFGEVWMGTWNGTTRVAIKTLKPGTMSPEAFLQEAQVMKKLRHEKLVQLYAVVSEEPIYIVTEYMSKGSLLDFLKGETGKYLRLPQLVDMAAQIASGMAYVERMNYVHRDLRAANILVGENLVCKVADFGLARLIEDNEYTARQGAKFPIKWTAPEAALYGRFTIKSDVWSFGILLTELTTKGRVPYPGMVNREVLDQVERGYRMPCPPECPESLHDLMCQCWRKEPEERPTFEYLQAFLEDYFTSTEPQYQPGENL

[10] = target: Leukocyte tyrosine kinase receptor (Homo sapiens) (UniProt P29376); assay: Inhibition of human LTK assessed as percent of control at 2000 nM by KINOMEscan assay relative to control; set-up: scale not given: the % may be the effect or the level left
Leukocyte tyrosine kinase receptor (Homo sapiens), sequence (P29376 whole entry): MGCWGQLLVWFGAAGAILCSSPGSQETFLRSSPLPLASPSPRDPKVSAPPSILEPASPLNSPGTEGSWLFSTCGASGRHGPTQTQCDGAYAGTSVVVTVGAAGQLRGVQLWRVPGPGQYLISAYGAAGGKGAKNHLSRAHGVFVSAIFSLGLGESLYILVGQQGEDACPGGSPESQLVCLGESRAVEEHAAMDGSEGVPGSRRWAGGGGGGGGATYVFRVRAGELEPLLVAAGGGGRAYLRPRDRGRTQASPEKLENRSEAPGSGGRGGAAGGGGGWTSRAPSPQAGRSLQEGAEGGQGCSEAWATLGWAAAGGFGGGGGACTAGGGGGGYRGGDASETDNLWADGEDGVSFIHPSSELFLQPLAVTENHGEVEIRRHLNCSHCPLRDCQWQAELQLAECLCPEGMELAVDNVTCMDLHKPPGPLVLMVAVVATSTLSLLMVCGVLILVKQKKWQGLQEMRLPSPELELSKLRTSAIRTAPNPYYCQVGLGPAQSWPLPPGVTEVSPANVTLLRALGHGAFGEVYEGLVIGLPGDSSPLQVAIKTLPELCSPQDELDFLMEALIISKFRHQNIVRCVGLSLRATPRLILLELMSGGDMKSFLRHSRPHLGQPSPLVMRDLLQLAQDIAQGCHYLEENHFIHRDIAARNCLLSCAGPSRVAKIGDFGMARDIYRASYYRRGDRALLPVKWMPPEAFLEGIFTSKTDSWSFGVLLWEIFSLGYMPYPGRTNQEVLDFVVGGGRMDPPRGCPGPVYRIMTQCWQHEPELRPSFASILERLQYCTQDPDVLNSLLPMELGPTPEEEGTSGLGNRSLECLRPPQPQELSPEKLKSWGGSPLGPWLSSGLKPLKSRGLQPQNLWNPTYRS

[11] = target: Cyclin-dependent kinase 15 (Homo sapiens) (UniProt Q96Q40); assay: Inhibition of human PFTAIRE2 assessed as percent of control at 2000 nM by KINOMEscan assay relative to control; set-up: scale not given: the % may be the effect or the level left
[12] = target: Activated CDC42 kinase 1 (Homo sapiens) (UniProt Q07912); assay: Inhibition of human TNK2 assessed as percent of control at 2000 nM by KINOMEscan assay relative to control; set-up: scale not given: the % may be the effect or the level left
[13] = target: Fibroblast growth factor receptor 1 (Homo sapiens) (UniProt P11362); assay: Inhibition of human FGFR1 assessed as percent of control at 2000 nM by KINOMEscan assay relative to control; set-up: scale not given: the % may be the effect or the level left
[14] = target: Peripheral plasma membrane protein CASK (Homo sapiens) (UniProt O14936); assay: Inhibition of human CASK assessed as percent of control at 2000 nM by KINOMEscan assay relative to control; set-up: scale not given: the % may be the effect or the level left
[15] = target: Ribosomal protein S6 kinase alpha-6 (Homo sapiens) (UniProt Q9UK32); assay: Inhibition of human C-terminal RSK4 kinase domain 2 assessed as percent of control at 2000 nM by KINOMEscan assay relative to control; set-up: scale not given: the % may be the effect or the level left
[16] = target: Calcium/calmodulin-dependent protein kinase type II subunit beta (Homo sapiens) (UniProt Q13554); assay: Inhibition of human CAMK2B assessed as percent of control at 2000 nM by KINOMEscan assay relative to control; set-up: scale not given: the % may be the effect or the level left
Calcium/calmodulin-dependent protein kinase type II subunit beta (Homo sapiens), sequence (Q13554 whole entry): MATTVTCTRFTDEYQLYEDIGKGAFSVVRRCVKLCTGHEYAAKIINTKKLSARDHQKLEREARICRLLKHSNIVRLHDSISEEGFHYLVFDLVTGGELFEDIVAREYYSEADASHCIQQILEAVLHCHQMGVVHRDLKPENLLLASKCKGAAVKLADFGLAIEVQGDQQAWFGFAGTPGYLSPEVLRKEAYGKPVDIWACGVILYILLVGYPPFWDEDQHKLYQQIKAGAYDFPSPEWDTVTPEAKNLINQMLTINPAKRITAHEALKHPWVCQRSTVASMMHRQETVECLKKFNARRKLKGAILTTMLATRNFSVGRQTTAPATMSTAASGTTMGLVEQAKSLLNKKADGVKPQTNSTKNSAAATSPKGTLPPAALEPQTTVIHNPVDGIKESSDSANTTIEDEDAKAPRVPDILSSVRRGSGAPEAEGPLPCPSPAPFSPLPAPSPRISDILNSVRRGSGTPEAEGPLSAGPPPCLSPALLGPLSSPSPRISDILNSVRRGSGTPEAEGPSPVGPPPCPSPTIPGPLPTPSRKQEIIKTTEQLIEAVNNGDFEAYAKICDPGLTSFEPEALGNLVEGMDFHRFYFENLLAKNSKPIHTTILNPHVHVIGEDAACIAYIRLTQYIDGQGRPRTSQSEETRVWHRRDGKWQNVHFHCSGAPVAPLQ

[17] = test system: Proto-oncogene tyrosine-protein kinase receptor Ret (Homo sapiens), P07949 [V804M]; assay: Inhibition of human RET V804M mutant assessed as percent of control at 2000 nM by KINOMEscan assay relative to control; set-up: scale not given: the % may be the effect or the level left
Proto-oncogene tyrosine-protein kinase receptor Ret (Homo sapiens), P07949 [V804M], sequence (P07949 whole entry V804M): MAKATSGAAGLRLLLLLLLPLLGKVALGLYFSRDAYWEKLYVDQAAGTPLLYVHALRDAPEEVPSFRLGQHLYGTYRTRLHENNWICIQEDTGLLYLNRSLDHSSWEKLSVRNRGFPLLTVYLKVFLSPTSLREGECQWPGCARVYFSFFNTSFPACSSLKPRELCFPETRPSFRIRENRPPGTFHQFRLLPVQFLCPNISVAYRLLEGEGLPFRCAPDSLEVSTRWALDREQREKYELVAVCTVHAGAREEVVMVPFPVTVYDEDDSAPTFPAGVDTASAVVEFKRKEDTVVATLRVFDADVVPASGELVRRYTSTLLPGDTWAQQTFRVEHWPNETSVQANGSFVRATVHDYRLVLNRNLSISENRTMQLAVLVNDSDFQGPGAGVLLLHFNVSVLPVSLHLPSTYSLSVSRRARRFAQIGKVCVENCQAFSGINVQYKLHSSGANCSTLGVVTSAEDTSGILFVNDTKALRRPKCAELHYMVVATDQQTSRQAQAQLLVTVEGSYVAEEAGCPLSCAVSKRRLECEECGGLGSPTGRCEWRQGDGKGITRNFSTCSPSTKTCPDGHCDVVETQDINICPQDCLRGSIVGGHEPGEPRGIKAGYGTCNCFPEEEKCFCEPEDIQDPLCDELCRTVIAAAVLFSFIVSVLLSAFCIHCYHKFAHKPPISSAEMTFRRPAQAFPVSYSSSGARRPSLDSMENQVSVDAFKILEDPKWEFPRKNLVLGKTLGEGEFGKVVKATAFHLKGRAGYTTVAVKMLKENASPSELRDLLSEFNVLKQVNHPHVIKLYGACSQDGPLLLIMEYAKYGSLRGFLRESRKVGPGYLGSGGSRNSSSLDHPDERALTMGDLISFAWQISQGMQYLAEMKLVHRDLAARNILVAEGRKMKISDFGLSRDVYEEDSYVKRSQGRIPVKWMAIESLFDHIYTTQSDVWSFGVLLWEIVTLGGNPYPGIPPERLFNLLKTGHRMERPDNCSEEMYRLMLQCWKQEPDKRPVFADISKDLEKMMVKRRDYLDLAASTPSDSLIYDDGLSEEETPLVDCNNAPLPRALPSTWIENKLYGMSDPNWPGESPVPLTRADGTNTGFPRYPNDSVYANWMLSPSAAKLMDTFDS

[18] = target: Mitogen-activated protein kinase kinase kinase 4 (Homo sapiens) (UniProt Q9Y6R4); assay: Inhibition of human MAP3K4 assessed as percent of control at 2000 nM by KINOMEscan assay relative to control; set-up: scale not given: the % may be the effect or the level left
[19] = target: Ribosomal protein S6 kinase alpha-1 (Homo sapiens) (UniProt Q15418); assay: Inhibition of human N-terminal RSK1 kinase domain 1 assessed as percent of control at 2000 nM by KINOMEscan assay relative to control; set-up: scale not given: the % may be the effect or the level left
[20] = test system: Phosphatidylinositol 4,5-bisphosphate 3-kinase catalytic subunit alpha isoform (Homo sapiens), P42336 [H1047L]; assay: Inhibition of human PIK3CA H1047L mutant assessed as percent of control at 2000 nM by KINOMEscan assay relative to control; set-up: scale not given: the % may be the effect or the level left
[21] = target: Muscle, skeletal receptor tyrosine-protein kinase (Homo sapiens) (UniProt O15146); assay: Inhibition of human MUSK assessed as percent of control at 2000 nM by KINOMEscan assay relative to control; set-up: scale not given: the % may be the effect or the level left
[22] = target: Phosphatidylinositol 3-kinase catalytic subunit type 3 (Homo sapiens) (UniProt Q8NEB9); assay: Inhibition of human VPS34 assessed as percent of control at 2000 nM by KINOMEscan assay relative to control; set-up: scale not given: the % may be the effect or the level left
[23] = target: Tyrosine-protein kinase receptor UFO (Homo sapiens) (UniProt P30530); assay: Inhibition of human AXL assessed as percent of control at 2000 nM by KINOMEscan assay relative to control; set-up: scale not given: the % may be the effect or the level left
[24] = target: Mitogen-activated protein kinase 15 (Homo sapiens) (UniProt Q8TD08); assay: Inhibition of human ERK8 assessed as percent of control at 2000 nM by KINOMEscan assay relative to control; set-up: scale not given: the % may be the effect or the level left
Mitogen-activated protein kinase 15 (Homo sapiens), sequence (Q8TD08 whole entry): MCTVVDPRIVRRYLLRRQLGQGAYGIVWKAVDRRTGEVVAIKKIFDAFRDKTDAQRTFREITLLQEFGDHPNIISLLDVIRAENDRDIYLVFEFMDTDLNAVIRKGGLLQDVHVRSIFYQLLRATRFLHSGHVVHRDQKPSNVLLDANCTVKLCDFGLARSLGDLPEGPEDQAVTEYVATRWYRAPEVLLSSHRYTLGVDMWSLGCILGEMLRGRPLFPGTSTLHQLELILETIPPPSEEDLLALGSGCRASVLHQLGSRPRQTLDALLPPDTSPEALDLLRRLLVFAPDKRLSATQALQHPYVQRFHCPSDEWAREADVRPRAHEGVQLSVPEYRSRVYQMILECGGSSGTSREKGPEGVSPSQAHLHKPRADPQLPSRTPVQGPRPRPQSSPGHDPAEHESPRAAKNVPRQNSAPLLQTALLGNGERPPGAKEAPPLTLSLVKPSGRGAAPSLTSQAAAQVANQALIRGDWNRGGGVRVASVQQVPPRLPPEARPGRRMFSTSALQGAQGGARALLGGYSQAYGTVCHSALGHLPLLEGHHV

[25] = target: Ephrin type-A receptor 6 (Homo sapiens) (UniProt Q9UF33); assay: Inhibition of human EPHA6 assessed as percent of control at 2000 nM by KINOMEscan assay relative to control; set-up: scale not given: the % may be the effect or the level left
[26] = test system: Tyrosine-protein kinase ABL1 (Homo sapiens), P00519 [T315I]; assay: Inhibition of phosphorylated human ABL1 T315I mutant assessed as percent of control at 2000 nM by KINOMEscan assay relative to control; set-up: scale not given: the % may be the effect or the level left
[27] = test system: Mast/stem cell growth factor receptor Kit (Homo sapiens), P10721 [D816H]; assay: Inhibition of human KIT D816H mutant assessed as percent of control at 2000 nM by KINOMEscan assay relative to control; set-up: scale not given: the % may be the effect or the level left
[28] = target: Serine/threonine-protein kinase TNNI3K (Homo sapiens) (UniProt Q59H18); assay: Inhibition of human TNNI3K assessed as percent of control at 2000 nM by KINOMEscan assay relative to control; set-up: scale not given: the % may be the effect or the level left
[29] = target: Casein kinase I isoform alpha (Homo sapiens) (UniProt P48729); settings: INHIBITOR, dose 2000.0 nM
Description: Inhibition of human CSNK1A1 at 2000 nM by KINOMEscan assay

[30] = test system: Tyrosine-protein kinase ABL1 (Homo sapiens), P00519 [M351T]; assay: Inhibition of phosphorylated human ABL1 M351T mutant assessed as percent of control at 2000 nM by KINOMEscan assay relative to control; set-up: scale not given: the % may be the effect or the level left
[31] = target: Homeodomain-interacting protein kinase 4 (Homo sapiens) (UniProt Q8NE63); assay: Inhibition of human HIPK4 assessed as percent of control at 2000 nM by KINOMEscan assay relative to control; set-up: scale not given: the % may be the effect or the level left

With CN(C)C(=O)c1ccc(N2CCCN(c3ccnc4sc(C(N)=O)c(N)c34)CC2)cc1 the Activity [1] was 77% and 90%, the Activity [2] was 81% and 77% and the Activity [3] was 81% and 97%. For the same compound, the Activity [4] was 95% and 100%, the Activity [5] was 100% and 87% and the Activity [6] was 59% and 66%. For the same compound, the Activity [7] was 99% and 87%, the Activity [8] was 100% and 89% and the Activity [9] was 100% and 96%. For the same compound, the Activity [10] was 90% and 77%, the Activity [11] was 100% and 80% and the Activity [12] was 100%. The Activity [13] was 98% and 92%, the Activity [14] was 71% and 96% and the Activity [15] was 94% and 79%. The Activity [16] was 92% and 87%, the Activity [17] was 100% and the Activity [18] was 90% and 100%. The Activity [19] was 98% and 96%, the Activity [20] was 94% and 80% and the Activity [21] was 94% and 82%. The Activity [22] was 85% and 65%, the Activity [23] was 99% and 96% and the Activity [24] was 98% and 99%. The Activity [25] was 100%, the Activity [26] was 100% and 85% and the Activity [27] was 91% and 66%. The Activity [28] was 100%, the inhibition [29] was > 65% and the Activity [30] was 77%. For the same compound, the Activity ([30]; INHIBITOR) was 10% and the Activity [31] was 100%.
